The record followed here is publication PMC9486808 (ACS Chemical Biology, 2022).

As a reminder, the Kd is a measure of binding affinity in units of concentration. Low readings indicate a tighter complex, high ones a looser complex. The IC50 is the concentration that inhibits the measured activity by half. The term CC50 denotes the concentration that lowers cell viability or growth by half. A higher CC50 goes with better tolerance by the cells.

One series concerns the target H1 ectodomain (Influenza A virus, UniProt C3W5S1). The series is described as follows: biochemical. Format: binding, Influenza A virus A/California/04/2009 (H1N1).
The subject of series [1] is H1N1pr8 (A/PR8/8/34/Mount Sinai). Format: cell-based, Influenza A virus.
Series [2] relates to H3N1 virus carrying H3 HA of A/Bilthoven/1761/76 (H3N2) in the H1N1pr8 background. Format: cell-based, Influenza A virus.
The next series deals with H1 HA (Influenza A virus, UniProt C3W5S1). In kind it is binding, Influenza A virus A/California/04/2009 (H1N1).
The target of series [3] is H1 ectodomain of A/California/04/2009 (H1N1) (Influenza A virus, UniProt C3W5S1). In kind it is binding, Influenza A virus A/California/04/2009 (H1N1).
The subject of series [4] is H1N1pdm09 (A/Netherlands/602/2009).
Series [5] has the same test system. Format: cell-based, Influenza A virus.
A further series can be described thus: in vitro. Conditions: HeLa R19 cells and MDCKI cells.
The subject of series [6] is H5N1 virus carrying H5 HA of A/duck/Hunan/795/2002 in the H1N1pr8 genetic background. Conditions: 16 h.

Where “and” joins values, the source holds several entries; their conditions need not be identical. Equal values may be shown once. Starred links: 1 amine or outer side, 2 acyl side, 3 side chain; linkers in the order of their positions; H or OH if unused. Positions of bridges follow the written chain, without caps; N, C: chain ends. Non-standard residues stand in square brackets, D forms with d. Residues, ends and D or L forms follow the SMILES beside them. Groups on a side chain read outwards from the residue. *: point of attachment. X1 = O=C([C@H](CCn1nnc2c1-c1ccccc1CN([*:3])c1ccccc1-2)N[*:1])[*:2]; 6FAM = O=C1OC2(c3ccc(O)cc3Oc3cc(O)ccc32)c2cc(C(=O)*)ccc21; AEEA = NCCOCCOCC(=O)O; Ahx = NCCCCCC(=O)O A value given as a limit tells only on which side of the number the result lay.

H1 ectodomain of A/California/04/2009 (H1N1), sequence (C3W5S1 entry or part of it, added parts left off): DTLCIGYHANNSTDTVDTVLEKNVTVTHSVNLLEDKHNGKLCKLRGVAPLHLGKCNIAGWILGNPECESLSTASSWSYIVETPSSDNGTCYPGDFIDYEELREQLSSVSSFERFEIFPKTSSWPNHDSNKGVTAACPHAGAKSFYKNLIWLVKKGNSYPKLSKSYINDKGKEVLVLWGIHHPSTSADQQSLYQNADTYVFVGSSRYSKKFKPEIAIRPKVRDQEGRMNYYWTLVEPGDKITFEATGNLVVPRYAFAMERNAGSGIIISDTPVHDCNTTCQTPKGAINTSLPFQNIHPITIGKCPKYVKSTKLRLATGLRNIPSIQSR
H1 ectodomain, sequence (C3W5S1 entry or part of it, added parts left off): as above

With `CC(C)C[C@H](NC(=O)[C@@H]1CSCC(=O)N[C@@H](Cc2ccc(O)cc2)C(=O)N[C@@H](Cc2c[nH]c3ccccc23)C(=O)N[C@@H](Cc2c[nH]cn2)C(=O)N[C@@H](CCCCN)C(=O)N[C@@H](CC(N)=O)C(=O)N[C@@H](CCCCN)C(=O)N[C@@H](Cc2ccc(O)cc2)C(=O)N[C@@H](C(C)C)C(=O)N[C@@H](CC(C)C)C(=O)N[C@@H]([C@@H](C)O)C(=O)N[C@@H](Cc2ccc(O)cc2)C(=O)N[C@@H](CO)C(=O)N1)C(=O)N[C@@H](Cc1ccccc1)C(=O)N[C@@H](C)C(=O)N[C@@H](C)C(=O)NCCOCCOCC(=O)N[C@@H](CCn1nnc2c1-c1ccccc1CN(C(=O)CCCCCNC(=O)c1ccc3c(c1)C1(OC3=O)c3ccc(O)cc3Oc3cc(O)ccc31)c1ccccc1-2)C(=O)NCC(=O)N[C@@H](CC(=O)O)C(=O)N[C@@H](Cc1ccc(O)cc1)C(=O)N[C@@H](CCCCN)C(=O)N[C@@H](CC(=O)O)C(=O)N[C@@H](CC(=O)O)C(=O)N[C@@H](CC(=O)O)C(=O)N[C@@H](CC(=O)O)C(=O)N[C@@H](CCCCN)C(=O)NCC(N)=O` [L2FAM] ({CH2CO}-YWHKNKYVLTYSCLFAA[AEEA][X1]([Ahx-6FAM])GDYKDDDDKG-NH2; thioether N-13), on H1 ectodomain, the Hillslope was 0.91 and 0.70.
`CC(C)C[C@H](NC(=O)[C@@H]1CSCC(=O)N[C@@H](Cc2ccc(O)cc2)C(=O)N[C@@H](Cc2c[nH]c3ccccc23)C(=O)N[C@@H](Cc2c[nH]cn2)C(=O)N[C@@H](CCCCN)C(=O)N[C@@H](CC(N)=O)C(=O)N[C@@H](CCCCN)C(=O)N[C@@H](Cc2ccc(O)cc2)C(=O)N[C@@H](C(C)C)C(=O)N[C@@H](CC(C)C)C(=O)N[C@@H]([C@@H](C)O)C(=O)N[C@@H](Cc2ccc(O)cc2)C(=O)N[C@@H](CO)C(=O)N1)C(=O)N[C@@H](Cc1ccccc1)C(=O)N[C@@H](C)C(=O)N[C@@H](C)C(=O)NCC(N)=O` [L2] ({CH2CO}-YWHKNKYVLTYSCLFAAG-NH2; thioether N-13): on H1 ectodomain, binding was characterised by a dissociation constant (Kd) of 2.4 nM. Moreover, the “Inhibition of infection (infected cells relative to untreated control)” value is recorded as “strongly inhibited infection” in [1], “fell short of inhibiting” in series [2] and “strongly inhibited infection” in series [5]. For the same molecule, the ΔTm (°C), purified peptide at H1 HA worked out at 1 °C. For the same molecule, the “Binding region in the HA stem (HDX-MS)” value in [3] was “aa 369–387”. For the same molecule, the “Inhibition of infection at a single concentration” value in series [4] was “strong inhibition of infection”. The IC50 came to 69 ± 8.3 nM in series [4] (16 h) and 1050 ± 300 nM in series [6]. In the series “in vitro”, this molecule displayed a CC50 at 72 h of more than 5000 nM.
Take `CC(C)[C@@H]1NC(=O)[C@H](Cc2c[nH]c3ccccc23)NC(=O)[C@H](CCCNC(=N)N)NC(=O)[C@H](Cc2ccc(O)cc2)NC(=O)CSC[C@@H](C(=O)NCCOCCOCC(=O)N[C@@H](CCn2nnc3c2-c2ccccc2CN(C(=O)CCCCCNC(=O)c2ccc4c(c2)C2(OC4=O)c4ccc(O)cc4Oc4cc(O)ccc42)c2ccccc2-3)C(=O)NCC(=O)N[C@@H](CC(=O)O)C(=O)N[C@@H](Cc2ccc(O)cc2)C(=O)N[C@@H](CCCCN)C(=O)N[C@@H](CC(=O)O)C(=O)N[C@@H](CC(=O)O)C(=O)N[C@@H](CC(=O)O)C(=O)N[C@@H](CC(=O)O)C(=O)N[C@@H](CCCCN)C(=O)NCC(N)=O)NC(=O)[C@H](C(C)C)NC(=O)[C@H](C(C)C)NC(=O)[C@H](Cc2ccccc2)NC(=O)[C@H](Cc2ccc(O)cc2)NC(=O)[C@@H]2CCCN2C(=O)[C@H](CCC(=O)O)NC(=O)[C@H](CO)NC(=O)[C@H](Cc2ccccc2)NC(=O)[C@H](Cc2ccccc2)NC(=O)[C@H](CO)NC(=O)[C@H]([C@@H](C)O)NC(=O)[C@H](Cc2c[nH]c3ccccc23)NC1=O` [L4FAM] ({CH2CO}-YRWVWTSFFSEPYFVVC[AEEA][X1]([Ahx-6FAM])GDYKDDDDKG-NH2; thioether N-17): the Hillslope at H1 ectodomain was 0.96 and 0.76.
Consider `CC[C@H](C)[C@@H]1NC(=O)[C@H](CCCCN)NC(=O)[C@H](CO)NC(=O)[C@H](Cc2c[nH]c3ccccc23)NC(=O)[C@H](Cc2ccc(O)cc2)NC(=O)[C@H]([C@@H](C)CC)NC(=O)[C@H](CCCCN)NC(=O)[C@H](CC(C)C)NC(=O)[C@@H](Cc2ccc(O)cc2)NC(=O)CSC[C@@H](C(=O)NCCOCCOCC(=O)N[C@@H](CCn2nnc3c2-c2ccccc2CN(C(=O)CCCCCNC(=O)c2ccc4c(c2)C2(OC4=O)c4ccc(O)cc4Oc4cc(O)ccc42)c2ccccc2-3)C(=O)NCC(=O)N[C@@H](CC(=O)O)C(=O)N[C@@H](Cc2ccc(O)cc2)C(=O)N[C@@H](CCCCN)C(=O)N[C@@H](CC(=O)O)C(=O)N[C@@H](CC(=O)O)C(=O)N[C@@H](CC(=O)O)C(=O)N[C@@H](CC(=O)O)C(=O)N[C@@H](CCCCN)C(=O)NCC(N)=O)NC(=O)[C@H](Cc2c[nH]c3ccccc23)NC(=O)[C@H](CCC(=O)O)NC(=O)[C@H](CO)NC(=O)[C@H](C(C)C)NC(=O)[C@H](CC(C)C)NC(=O)CNC(=O)[C@H](Cc2c[nH]cn2)NC1=O` [S3FAM] ({CH2CO}-[dY]LKIYWSKIHGLVSEWC[AEEA][X1]([Ahx-6FAM])GDYKDDDDKG-NH2; thioether N-17), for which the Hillslope on H1 ectodomain is 1.02 and 0.94.
As to `CC(C)C[C@@H]1NC(=O)[C@H](C(C)C)NC(=O)[C@@H](Cc2ccc(O)cc2)NC(=O)CSC[C@@H](C(=O)NCCOCCOCC(=O)N[C@@H](CCn2nnc3c2-c2ccccc2CN(C(=O)CCCCCNC(=O)c2ccc4c(c2)C2(OC4=O)c4ccc(O)cc4Oc4cc(O)ccc42)c2ccccc2-3)C(=O)NCC(=O)N[C@@H](CC(=O)O)C(=O)N[C@@H](Cc2ccc(O)cc2)C(=O)N[C@@H](CCCCN)C(=O)N[C@@H](CC(=O)O)C(=O)N[C@@H](CC(=O)O)C(=O)N[C@@H](CC(=O)O)C(=O)N[C@@H](CC(=O)O)C(=O)N[C@@H](CCCCN)C(=O)NCC(N)=O)NC(=O)[C@H](C(C)C)NC(=O)[C@H](Cc2c[nH]c3ccccc23)NC(=O)[C@H](Cc2c[nH]cn2)NC(=O)[C@H]([C@@H](C)O)NC(=O)[C@H](C)NC(=O)[C@H](CC(C)C)NC(=O)[C@H]([C@@H](C)O)NC(=O)CNC(=O)[C@H](Cc2c[nH]cn2)NC(=O)[C@H](CC(=O)O)NC(=O)[C@H](Cc2c[nH]c3ccccc23)NC(=O)[C@H](CCCNC(=N)N)NC(=O)[C@H](Cc2ccccc2)NC1=O` [S5FAM] ({CH2CO}-[dY]VLFRWDHGTLATHWVC[AEEA][X1]([Ahx-6FAM])GDYKDDDDKG-NH2; thioether N-17), the Hillslope at H1 ectodomain was 0.97 and 0.86.
Consider “Cyclo(Ac-YITRFTPWPKLYPVWDC)G-NH2 (Ac-YITRFTPWPKLYPVWDCG-NH2; bridge N-17; also: cyclized, linkage type not given here) [L1]”, for which the ΔTm (°C), purified peptide in the series with H1 HA came to 3.8 °C. Also, in [4], the “Inhibition of infection at a single concentration” value was “strong inhibition of infection”.
As to Cyclo(Ac-YRFLWSSFSSQPSWVHC)G-NH2 [B5], the “ΔTm (°C), crude peptide” value on H1 HA was found to be 1.4 °C.
Turning to Cyclo(Ac-YSNNRNWLPHDWQVLYC)G-NH2 [B6], the “ΔTm (°C), crude peptide” value at H1 HA was determined as 1.6 °C.
With Cyclo(Ac-YSYFDVNTIFWFSPFC)CG-NH2 [S9], the “ΔTm (°C), crude peptide” value at H1 HA was 0.0 °C.
Still for that read-out and setting: under Cyclo(Ac-YVQIFDRYGIYSGKWSC)G-NH2 [B8] stands 1.0 °C.
The same measure, in the same setting: then Cyclo(Ac-YYKALWINATFYQSLVC)G-NH2 [R5], with 1.2 °C.
Still for that read-out and setting: then Cyclo(Ac-YYSWFEATGRFRAIFSC)G-NH2 [R4], with 1.4 °C.
With Cyclo(Ac-yAFWIRWTNHYRSGFTC)G-NH2 [B4], the “ΔTm (°C), crude peptide” value on H1 HA is 2.0 °C. In series [4], the “Inhibition of infection at a single concentration” value is reported as “strong inhibition of infection”.
Cyclo(Ac-yFLC)TKWNYGRWYLFYCG-NH2 [R1]: the “ΔTm (°C), crude peptide” value on H1 HA came out at 1.4 °C.
As to Cyclo(Ac-yFVNWYWHGEKLFYRYC)G-NH2 [R2], the “ΔTm (°C), crude peptide” value on H1 HA was determined as 2.2 °C.
In the case of Cyclo(Ac-yIRLFWINGNLVSEWNC)G-NH2 [S2], the “ΔTm (°C), crude peptide” value on H1 HA was 4.4 °C. Also, the “Binding region in the HA stem (HDX-MS)” value in series [3] is given as “aa 369–387”. Also, the “Inhibition of infection at a single concentration” value in series [4] was “strong inhibition of infection”.
As for Cyclo(Ac-yIVLAWKGHYLESRWTC)G-NH2 [S8], the “ΔTm (°C), crude peptide” value at H1 HA was found to be 1.6 °C.
The same measure, in the same setting: then Cyclo(Ac-yLIWPSFNQNAKIIFPC)G-NH2 [B9], with 3.6 °C; and Cyclo(Ac-yRQWFYLGKYYC)TWSCCG-NH2 [S4], with 0.0 °C.
The same measure, in the same setting: then Cyclo(Ac-yRVFNISWDGEYRSWWC)G-NH2 [B3], with 0.4 °C.
Regarding Cyclo(Ac-ySYFIWANFQTEPYFVC)G-NH2 [B2], the “ΔTm (°C), crude peptide” value at H1 HA came out at 0.6 °C. The “Binding region in the HA stem (HDX-MS)” value in series [3] is reported as “aa 369–387”. In addition, the “Inhibition of infection at a single concentration” value in series [4] is “strong inhibition of infection”.
For Cyclo(Ac-yTYYVLLQRWPPVWAPC)G-NH2 [B1], in that order: 2.0 °C, “aa 369–387” and “strong inhibition of infection”.
With Cyclo(Ac-yVIAIRPFSQLCWRWVC)G-NH2 [S7], the “ΔTm (°C), crude peptide” value at H1 HA worked out at 0.4 °C.
The same measure, in the same setting: then Cyclo(Ac-yVKIVWFEGTLNTTWFC)G-NH2 [S6], with 1.6 °C.
